Test results as given in paper PMC5350173, “Acute effects of N‐terminal progastrin fragments on gastric acid secretion in man” (Physiological Reports, 2017).
No end group written: not given here.

Assay: Plasma concentration of infused peptides by radioimmunoassay

- Plasma concentration relative to that of progastrin fragment 1‐35 in experiment D (fragment 1‐19 at t150 in part F versus fragment 1‐35 in part D): half
- Cmax (human, plasma, iv, 268 pmol/kg/h, SEM): 0.43 ± 0.0899 nM
Sequence: SWKPRSQQPDAPLGTGANR [progastrin fragment 1‐19]
